Reference: US8394789B2, “(Dihydro)pyrrolo[2,1-α]isoquinolines” (MSD Oss B.V., priority 2008, dated 2013)

Target: T1, human FSH receptor (Homo sapiens, UniProt P23945)
T1 construct: expressed in transfected cells
T1 sequence (P23945 18-695): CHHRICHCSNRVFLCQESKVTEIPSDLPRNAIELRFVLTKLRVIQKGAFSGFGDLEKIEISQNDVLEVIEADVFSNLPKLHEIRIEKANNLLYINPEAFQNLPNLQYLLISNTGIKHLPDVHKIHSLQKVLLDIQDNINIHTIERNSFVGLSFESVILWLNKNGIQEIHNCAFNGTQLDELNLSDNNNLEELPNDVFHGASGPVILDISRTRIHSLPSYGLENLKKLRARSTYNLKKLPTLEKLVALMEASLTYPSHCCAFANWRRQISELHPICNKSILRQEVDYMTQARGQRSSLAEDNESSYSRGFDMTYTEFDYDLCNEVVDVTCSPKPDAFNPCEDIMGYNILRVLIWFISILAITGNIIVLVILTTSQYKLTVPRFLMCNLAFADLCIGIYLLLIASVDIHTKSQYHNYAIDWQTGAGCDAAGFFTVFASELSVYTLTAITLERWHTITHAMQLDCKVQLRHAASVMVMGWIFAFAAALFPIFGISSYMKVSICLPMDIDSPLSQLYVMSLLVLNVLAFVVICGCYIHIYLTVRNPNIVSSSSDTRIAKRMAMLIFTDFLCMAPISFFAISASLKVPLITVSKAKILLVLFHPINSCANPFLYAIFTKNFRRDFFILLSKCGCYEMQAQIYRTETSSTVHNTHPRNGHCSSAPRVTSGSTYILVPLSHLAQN
Test: hFSHRago (CHO luc): agonistic activity at the human FSH receptor expressed in CHO cells, CRE-luciferase reporter
Assay type: cell-based
Conditions: CHO cells stably transfected with human FSH receptor and CRE/luciferase reporter; 4 hours of incubation
Excerpt: The term EC50 means the concentration of the test compound that elicits half-maximal (50%) stimulation compared to the compound's maximally attainable effect. The values can be determined e.g. in a cell line transfected with a FSH receptor gene and cotransfected with a cAMP responsive element/promoter directing the expression of a reporter gene. Values can be determined using the software program such as MathIQ (version 2.0, ID Business Solutions Limited).
Agonistic activity of the compounds at the human FSH receptor was determined in Chinese Hamster Ovary (CHO) cells stably transfected with the human FSH receptor and cotransfected with a cAMP responsive element (CRE)/promoter directing the expression of a firefly luciferase reporter gene. […] Cells (7,500 cells/well of a 384 well plate) were incubated in Dulbecco' minimal essential F12 modified medium (Invitrogen), supplemented with 1 μg/ml bovine insulin, 5 μg/ml human apo-transferrin, 80 U/ml penicillin G and 80 μg/ml streptomycin with the test compounds (concentration between 0.0316 nM and 10.0 μM) in duplicate in a humidified atmosphere (95%) at 5-7% CO2 and 37° C. The final concentration of DMSO was 1%. After 4 hours of incubation, plates were allowed to adjust to room temperature for 1 hour. Then, Luclite (PerkinElmer) solution was added to the wells and cells were allowed to lyse for at least 1 hour at room temperature. Subsequently, luciferase activity was measured in a luminescence counter. The signal is expressed as counts per second (cps). The EC50 (concentration of the test compound that elicits half-maximal (50%) luciferase stimulation compared to the compound's maximally attainable effect) and efficacy values (maximal effect of the test compound as percentage of the maximal effect of recombinant human FSH) of the compounds were determined using the software program MathIQ (version 2.0, ID Business Solutions Limited).

SMILES | EC50
COc1cc2c(cc1OC(C)C)-c1c(-c3cccs3)cc(C(=O)N3CCCN(C(=O)C4(O)CCC4)CC3)n1CC2 [Example 10, [4-(1-Hydroxy-cyclobutanecarbonyl)-[1,4]diazepan-1-yl]-(9-isopropoxy-8-methoxy-1-thiophen-2-yl-5,6-dihydro-pyrrolo[2,1-α]isoquinolin-3-yl)-methanone] | 0.0014 µM
COc1cc2c(cc1OCCNS(C)(=O)=O)-c1c(-c3cccs3)cc(C(=O)N(C)C(C)(C)C)n1CC2 [Example 68, 9-(2-Methanesulfonylamino-ethoxy)-8-methoxy-1-thiophen-2-yl-5,6-dihydro-pyrrolo[2,1-α]isoquinoline-3-carboxylic acid tert-butyl-methyl-amide] | 0.016 µM
CC(C)Cc1cc2c(cc1O)CCn1c(C(=O)N(C)C(C)(C)C)cc(-c3cccs3)c1-2 [Example 61, 8-Hydroxy-9-isobutyl-1-thiophen-2-yl-5,6-dihydro-pyrrolo[2,1-α]isoquinoline-3-carboxylic acid tert-butyl-methyl-amide] | 0.0052 µM
COc1cc2c(cc1NC(C)C)-c1c(-c3cccs3)cc(C(=O)N(C)C(C)(C)C)n1CC2 [Example 51, 9-Isopropylamino-8-methoxy-1-thiophen-2-yl-5,6-dihydro-pyrrolo[2,1-α]isoquinoline-3-carboxylic acid tert-butyl-methyl-amide] | 0.0042 µM
COc1cc2c(cc1OC)-c1c(-c3ccc(F)cc3F)cc(C(=O)N(C)C(C)(C)C)n1CC2 [Example 118, 1-(2,4-Difluoro-phenyl)-8,9-dimethoxy-5,6-dihydro-pyrrolo[2,1-α]isoquinoline-3-carboxylic acid tert-butyl-methyl-amide] | 0.0483 µM
COc1cc2c(cc1OC(C)C)-c1c(-c3cccs3)cc(C(=O)N3CCCN(S(=O)(=O)c4cccs4)CC3)n1CC2 [Example 3, (9-Isopropoxy-8-methoxy-1-thiophen-2-yl-5,6-dihydro-pyrrolo[2,1-α]isoquinolin-3-yl)-[4-(thiophene-2-sulfonyl)-[1,4]diazepan-1-yl]-methanone] | 0.0046 µM
COc1cc2c(cc1C=O)-c1c(-c3cccs3)cc(C(=O)N(C)C(C)(C)C)n1CC2 [Example 91a, 9-Formyl-8-methoxy-1-thiophen-2-yl-5,6-dihydro-pyrrolo[2,1-α]isoquinoline-3-carboxylic acid tert-butyl-methyl-amide] | 0.006 µM
COc1cc2c(cc1OCCSC)-c1c(-c3cccs3)cc(C(=O)N(C)C(C)(C)C)n1CC2 [Example 71, 8-Methoxy-9-(2-methylsulfanyl-ethoxy)-1-thiophen-2-yl-5,6-dihydro-pyrrolo[2,1-α]isoquinoline-3-carboxylic acid tert-butyl-methyl-amide] | 0.0263 µM
COc1cc2c(cc1OC(C)C)-c1c(-c3cccs3)cc(C(=O)N3CCCN(C(=O)CCN)CC3)n1CC2 [Example 5, 3-Amino-1-[4-(9-isopropoxy-8-methoxy-1-thiophen-2-yl-5,6-dihydro-pyrrolo[2,1-α]isoquinoline-3-carbonyl)-[1,4]diazepan-1-yl]-propan-1-one] | 1.4 µM
COc1cc2c(cc1C(C)=O)-c1c(-c3cccs3)cc(C(=O)N3CCCC3(C)C)n1CC2 [Example 122, 1-[3-(2,2-Dimethyl-pyrrolidine-1-carbonyl)-8-methoxy-1-thiophen-2-yl-5,6-dihydro-pyrrolo[2,1-α]isoquinolin-9-yl]-ethanone] | 0.002 µM
COc1cc2c(cc1N1CCOCC1)-c1c(-c3cccs3)cc(C(=O)N(C)C(C)(C)C)n1CC2 [Example 56, 8-Methoxy-9-morpholin-4-yl-1-thiophen-2-yl-5,6-dihydro-pyrrolo[2,1-α]isoquinoline-3-carboxylic acid tert-butyl-methyl-amide] | 0.0157 µM
COc1cc2c(cc1OC(C)C)-c1c(-c3cccs3)cc(C(=O)N3CCCN(C(=O)C(O)C(F)(F)F)CC3)n1CC2 (stereo not drawn) [Example 4, 3,3,3-Trifluoro-2-hydroxy-1-[4-(9-isopropoxy-8-methoxy-1-thiophen-2-yl-5,6-dihydro-pyrrolo[2,1-α]isoquinoline-3-carbonyl)-[1,4]diazepan-1-yl]-propan-1-one] | 0.0013 µM
COc1cc2c(cc1OC(C)C)-c1c(-c3cccs3)cc(C(=O)C3CCCC3)n1CC2 [Example 46, Cyclopentyl-(9-isopropoxy-8-methoxy-1-thiophen-2-yl-5,6,6a,10a-tetrahydro-pyrrolo[2,1-α]isoquinolin-3-yl)-methanone] | 0.0782 µM
COc1cc2c(cc1OC(C)C)-c1c(Br)cc(C(=O)N(C)C(C)(C)C)n1CC2 [Example 37c, 1-Bromo-9-isopropoxy-8-methoxy-5,6-dihydro-pyrrolo[2,1-α]isoquinoline-3-carboxylic acid tert-butyl-methyl-amide] | 0.234 µM
COc1cc2c(cc1C=C(F)F)-c1c(-c3cccs3)cc(C(=O)N(C)C(C)(C)C)n1CC2 [Example 93] | 0.003 µM
COc1cc2c(cc1OC(C)C)-c1c(C3CCCC3)cc(C(=O)NC(C)(C)C)n1CC2 [Example 50, 1-Cyclopentyl-9-isopropoxy-8-methoxy-5,6-dihydro-pyrrolo[2,1-α]isoquinoline-3-tert-butylamide] | 0.22 µM
COC1=CC2CCn3c(C(=O)N4CCCN(C(=O)C5CCC5)CC4)cc(-c4cccs4)c3C2C=C1Br (stereo not drawn) [Example 82, (9-Bromo-8-methoxy-1-thiophen-2-yl-5,6,6a,10a-tetrahydro-pyrrolo[2,1--α]isoquinolin-3-yl)-(4-cyclobutanecarbonyl-[1,4]diazepan-1-yl)-methanone] | 0.0058 µM
COc1cc2c(cc1OC1CCCC1)-c1c(-c3cccs3)cc(C(=O)N3CCCN(C(C)=O)CC3)n1CC2 [Example 79, 1-[4-(9-Cyclopentyloxy-8-methoxy-1-thiophen-2-yl-5,6-dihydro-pyrrolo[2,1-α]isoquinoline-3-carbonyl)-perhydro-1,4-diazepin-1-yl]-ethanone] | 0.0142 µM
COc1cc2c(cc1OC(C)C)-c1c(-c3cccs3)cc(C(=O)N3CCCC3c3cccc(F)c3)n1CC2 (stereo not drawn) [Example 28, [2-(3-Fluoro-phenyl)-pyrrolidin-1-yl]-(9-isopropoxy-8-methoxy-1-thiophen-2-yl-5,6-dihydro-pyrrolo[2,1-α]isoquinolin-3-yl)-methanone] | 0.752 µM
COc1cc2c(cc1OCCNC(C)=O)-c1c(-c3cccs3)cc(C(=O)N(C)C(C)(C)C)n1CC2 [Example 67, 9-(2-Acetylamino-ethoxy)-8-methoxy-1-thiophen-2-yl-5,6-dihydro-pyrrolo[2,1-α]isoquinoline-3-carboxylic acid tert-butyl-methyl-amide] | 0.0365 µM
CCOC(=O)Nc1cc2c(cc1OC)CCn1c(C(=O)N3CCCC3(C)C)cc(-c3cccs3)c1-2 [Example 99, [3-(2,2-Dimethyl-pyrrolidine-1-carbonyl)-8-methoxy-1-thiophen-2-yl-5,6-dihydro-pyrrolo[2,1-α]isoquinolin-9-yl]-carbamic acid ethyl ester] | 0.022 µM
COc1cc2c(cc1OC)-c1c(-c3cccs3)cc(C(=O)N3CCCN(C(=O)C4(C)CCC4)CC3)n1CC2 [Example 104, (8,9-Dimethoxy-1-thiophen-2-yl-5,6-dihydro-pyrrolo[2,1-α]isoquinolin-3-yl)-[4-(1-methyl-cyclobutanecarbonyl)-[1,4]diazepan-1-yl]-methanone] | 0.003 µM
CCN(C(=O)c1cc(-c2cccs2)c2n1CCc1c-2cc(OC)c(OC)c1F)C(C)C [Example 115, 7-Fluoro-8,9-dimethoxy-1-thiophen-2-yl-5,6-dihydro-pyrrolo[2,1-α]isoquinoline-3-carboxylic acid ethyl-isopropyl-amide] | 0.937 µM
COc1cc2c(cc1OC(C)C)-c1c(-c3ccccn3)cc(C(=O)N3CCCN(C(=O)c4ccccn4)CC3)n1CC2 [Example 35, (9-Isopropoxy-8-methoxy-1-pyridin-2-yl-5,6-dihydro-pyrrolo[2,1-α]isoquinolin-3-yl)-[4-(pyridine-2-carbonyl)-[1,4]diazepan-1-yl]-methanone; trifluoro acetic acid] | 0.244 µM
COc1cc2c(cc1CC(C)C)-c1c(-c3nccs3)cc(C(=O)N(C)C(C)(C)C)n1CC2 [Example 60, 9-Isobutyl-8-methoxy-1-thiazol-2-yl-5,6-dihydro-pyrrolo[2,1-α]isoquinoline-3-carboxylic acid tert-butyl-methyl-amide] | 0.019 µM
CCOC(=O)COc1cc2c(cc1OC)CCn1c(C(=O)N(C)C(C)(C)C)cc(-c3cccs3)c1-2 [Example 63, [3-(tert-Butyl-methyl-carbamoyl)-8-methoxy-1-thiophen-2-yl-5,6-dihydro-pyrrolo[2,1-α]isoquinolin-9-yloxy]-acetic acid ethyl ester] | 0.252 µM
C#Cc1cc(C(=O)N2CCCN(C(=O)c3ccccc3)CC2)n2c1-c1cc(OC)c(OC)cc1CC2 [Example 109, (4-Benzoyl-[1,4]diazepan-1-yl)-(1-ethynyl-8,9-dimethoxy-5,6-dihydro-pyrrolo[2,1-α]isoquinolin-3-yl)-methanone] | 0.0762 µM
COc1cc2c(cc1OC(C)C)-c1c(-c3cccs3)cc(C(=O)N(C)N(C)C)n1CC2 [Example 31, 9-Isopropoxy-8-methoxy-1-thiophen-2-yl-5,6-dihydro-pyrrolo[2,1-α]isoquinoline-3-carboxylic acid trimethylhydrazide] | 0.241 µM
